Measurements as given in patent US20120270786A1, “INTESTINE AND MUSCLE RECOVERY” (I.N.R.A., priority 2009, published 2012).
Marks after values point to notes of the source that are not given here.

Key:
Type in all cases: in vivo, rat
[1] = tested on: starvation-induced body weight loss and intestine atrophy; assay: Starvation-induced body weight loss and intestine atrophy in saline- or GLP-2-injected rats (experiment 2); settings: for Body weight / Ileum mass / Jejunum mass / Small intestine mass: GLP-2 20 μg every 12 h, mean ± SEM
Description: (§1) Young male Wistar rats (50-60 g) were obtained from Charles River (L'Arbresle, France) and maintained in a temperature controlled room (22±1° C.) with a 12 h light/12 h dark cycle. They were given free access to a standard rodent diet (A03; UAR, Epernay sur Orge, France) and to water during a 5 days acclimatization period. Three experiments were conducted. (1) In the first experiment, rats were fed ad libitum or fasted for 1 or 2 days. At the end of the fasting period, rats were anesthetized with intraperitoneal injection of urethane (1.7 g/kg body weight, Sigma Aldrich, Lyon, France) and sacrificed. (2) In the second experiment, animals were randomly divided into control and GLP-2 treated groups (n=26-30 per group). Injections of saline (400 μL) or GLP-2 (20 μg/400 μL of saline) every 12 h started at day 0 and continued until the end of the experiment. At day 4, half of each group was deprived of food for 2 days. At day 6, animals were sacrificed as described. (3) In the last experiment, rats were allocated as described in experiment 2. Control and GLP-2 treated groups (n=20 per group) were divided into 2 groups of fed (n=5) and starved rats (n=15). Saline and GLP-2 injections continued until the sacrifice of the rats. At day 6, 5 rats from the fed and the 48 h-fasted groups treated or not with GLP-2 were sacrificed as described. The remaining fasted animals from the control and GLP-2 treated groups were refed ad libitum from day 6 for 6 or 24 h. After refeeding, rats were sacrificed as described.
(§2) The entire small intestine was rapidly excised, rinsed three times with ice-cold PBS, blotted and weighed. Ten cm caudal to the pyloric sphincter and ten cm cranial to the ileo-caecal junction were taken and discarded. Jejunum and ileum were excised, weighed, and divided in small pieces of 5 cm. The first piece was immediately processed for cathepsin activities. The remaining pieces were frozen in liquid nitrogen, and stored at −80° C. until further analyses. In experiment 3, skeletal muscles (EDL, gastrocnemius and tibialis anterior) were also carefully dissected and weight.
(§3) Data are expressed as means±SEM. One-way or two-way ANOVA were used to address for fasting effect in experiment 1 and for fasting and GLP-2 effects experiment 2 and 3. A posteriori PLSD Fisher's test was performed in order to assess for differences among groups. P values <0.05 were considered statistical significance and P values <0.10 were considered statistical tendency.

[2] = tested on: villus height and crypt depth in the jejunum and ileum; assay: Histologic and morphometric measurements of villus height and crypt depth in jejunum and ileum; settings: GLP-2 treatment
Description: as §1
Tissue samples from jejunum and ileum were fixed in 10% formaldehyde buffered with Na2CO3 (10 g/L) and processed for villus height and crypt depth measurements. Treatment designation of slides was blinded at the time of measurement.

proteasome = assay: Peptidase activities of the proteasome in the small intestine of fed and starved rats
Description: (§4) Young male Wistar rats (50-60 g) were obtained from Charles River (L'Arbresle, France) and maintained in a temperature controlled room (22±1° C.) with a 12 h light/12 h dark cycle. They were given free access to a standard rodent diet (A03; UAR, Epernay sur Orge, France) and to water during a 5 days acclimatization period. Three experiments were conducted. (1) In the first experiment, rats were fed ad libitum or fasted for 1 or 2 days. At the end of the fasting period, rats were anesthetized with intraperitoneal injection of urethane (1.7 g/kg body weight, Sigma Aldrich, Lyon, France) and sacrificed. […]
Proteins from pieces of jejunum and/or ileum were homogenized using a polytron homogenizer, in ice-cold buffer (pH 7.5) containing 50 mmol/L Tris/HCl, 5 mmol/L MgCl2, 250 mmol/L sucrose, 10 mmol/L ATP, 1 mmol/L DTT, 10 μg/mL aprotinin, 10 μg/mL leupeptin, 10 μg/mL antipain, 10 μg/mL pepstatin A, and 0.2 mmol/L phenylmethylsulphonylfluoride (PMSF). […] The protein content of the proteasome preparation was determined using the Biorad protein assay following the manufacturer instructions. […] The accumulation of AMC at 37° C. during 45 minutes was measured continuously as described for cathepsin activities measurements. The difference between arbitrary fluorescence units recorded with or without 40 μmol/L […]of the proteasome inhibitor MG132 (Affiniti) in the reaction medium was calculated. […]

[3] = tested on: Cathepsin (B, B+S, B+L+S and D); assay: Cathepsin activities in the jejunum of fed and starved rats
Description: as §4
(§5) The five cm pieces of jejunum and/or ileum were immediately homogenized using a polytron homogenizer in a 10 mmol/L phosphate buffer (pH 7.4) containing 50 mmol/L KCl, 1 mmol/L EDTA and 0.25 mol/L sucrose as described previously.^30 Homogenates were then centrifuged at 1,000 g (10 minutes, 4° C.). […] Cathepsin B and cathepsin B+L+S activities were determined using the fluorogenic substrates Z-arginine-arginine-AMC (ZAA-AMC, 50 μmol/L, Sigma), Z-phenylalanine-arginine-AMC (ZPA-AMC, 30 μmol/L, Sigma), respectively.^30 Neutral pH reducing the cathepsin L activity, the bulk of the cathepsin B+L+S activity measured with ZPA-AMC at pH 7.0 reflects the cathepsin B+S activity. […] Fluorescence was measured continuously at 380 nm excitation and 440 nm emission wavelengths. […]

Cathepsin B = Cathepsin B activity in the ileum; settings: compared with untreated rats, P<0.002
Description: as §4, §5

Cathepsin B+L+S = Cathepsin B+L+S activity in the ileum; settings: compared with untreated rats, P<0.0005
Description: as §4, §5

[4] = tested on: starvation-induced skeletal muscle atrophy; assay: Starvation-induced skeletal muscle atrophy (experiment 3); settings: for EDL mass / gastrocnemius mass / tibialis anterior mass: GLP-2, mean ± SEM, n=5
Description: as §1, §2, §3

small intestinal mass = assay: Small intestinal mass recovery after 48 h starvation and 6 or 24 h refeeding
Description: as §1, §2

[5] = tested on: Tibialis anterior, gastrocnemius and EDL muscle masses; assay: Skeletal muscle mass recovery after 48 h starvation and 24 h refeeding
Description: as §1, §2

[6] = GLP-2 effect, two-way ANOVA, P<0.0001

**Q.** With “HGDGSFSDEMNTILDNLATRDFINWLIQTKITD (Rat GLP-2 sequence with an Ala-->Gly exchange in position 2) [Rat recombinant GLP-2, [Ala] in position 2 substituted by [Gly] to make the peptide resistant to DPP IV degradation]” as the sequence, how does the “atrophy of the jejunum” value ([1]; GLP-2-treated starved rats vs. saline injected-fed rats, P<0.005) read?
**A.** −12%

**Q.** What about the “increase of jejunal mass” value [1, 6] of the same sequence?
**A.** 21%

**Q.** And the “increase of total small intestinal mass” value [1, 6]?
**A.** 22%

**Q.** What about the “increase of ileal mass” value ([1]; GLP-2 effect, two-way ANOVA, P<0.005) of the same sequence?
**A.** 17.5%

**Q.** What about the “starvation-induced loss of body weight” value ([1]; GLP-2 treated group, starved vs fed) of the same sequence?
**A.** −22%

**Q.** And the “whole small intestine and ileum mass” value ([1]; GLP-2 treated-starved rats compared with saline injected-fed rats)?
**A.** similar

**Q.** And the Body weight ([1]; fed rats, day 6)?
**A.** 112.5 ± 1.7^a g

**Q.** And the Ileum mass ([1]; fed rats)?
**A.** 1.24 ± 0.07^b g

**Q.** What about the Jejunum mass ([1]; fed rats) of the same sequence?
**A.** 3.45 ± 0.08^b g

**Q.** And the Small intestine mass ([1]; fed rats)?
**A.** 5.57 ± 0.17^b g

**Q.** And the Body weight ([1]; rats starved 2 days)?
**A.** 87.2 ± 1.0^b g

**Q.** And the Ileum mass ([1]; rats starved 2 days)?
**A.** 1.02 ± 0.05^a g

**Q.** And the Jejunum mass ([1]; rats starved 2 days)?
**A.** 2.62 ± 0.09^d g

**Q.** What about the Small intestine mass ([1]; rats starved 2 days) of the same sequence?
**A.** 4.56 ± 0.11^a g

**Q.** What about the “reduction of the atrophy of the small intestine induced by starvation” value ([1]; starved rats receiving GLP-2) of the same sequence?
**A.** 16%

**Q.** What about the “villus height in the ileum” value [2] of the same sequence?
**A.** no effect

**Q.** And the “crypt depth in the ileum” value ([2]; following fasting)?
**A.** did not inhibit the reduction

**Q.** And the “crypt depth in the jejunum” value ([2]; following starvation)?
**A.** blocked the decrease

**Q.** What about the “reduction of the villus height in the jejunum” value ([2]; following starvation) of the same sequence?
**A.** −13%

**Q.** What about the “Peptidase activities of the proteasome” value (proteasome; jejunum or ileum, daily administration of GLP-2) of the same sequence?
**A.** not modified

**Q.** And the “increase of the chymotrypsin- and the trypsin-like activities” value (proteasome; jejunum, following fasting)?
**A.** did not block the increase

**Q.** And the cathepsin activities [3]?
**A.** blocked the increase

**Q.** And the “decrease of cathepsin B activity” value (Cathepsin B)?
**A.** −43%

**Q.** And the “decrease of cathepsin B+L+S activity” value (Cathepsin B+L+S)?
**A.** −50%

**Q.** And the EDL mass ([4]; fed rats)?
**A.** 45.7 ± 0.9^a mg

**Q.** What about the gastrocnemius mass ([4]; fed rats) of the same sequence?
**A.** 0.513 ± 0.013^a g

**Q.** And the tibialis anterior mass ([4]; fed rats)?
**A.** 195.7 ± 5.0^a mg

**Q.** What about the “skeletal muscle loss (tibialis anterior, gastrocnemius, EDL)” value ([4]; following 2 days of starvation) of the same sequence?
**A.** did not prevent

**Q.** And the EDL mass ([4]; starved rats (48 h))?
**A.** 37.2 ± 0.9^b mg

**Q.** And the gastrocnemius mass ([4]; starved rats (48 h))?
**A.** 0.415 ± 0.006^b g

**Q.** And the tibialis anterior mass ([4]; starved rats (48 h))?
**A.** 156.6 ± 2.0^b mg

**Q.** And the small intestinal atrophy (small intestinal mass; after 6 h of refeeding, P<0.001)?
**A.** 15%

**Q.** What about the small intestinal atrophy (small intestinal mass; after 24 h of refeeding) of the same sequence?
**A.** totally absent

**Q.** And the small intestine recovery (small intestinal mass; after 24 h of refeeding, GLP-2 treated rats)?
**A.** totally recovered

**Q.** And the “recovery of the small intestinal mass” value (small intestinal mass; refed rats after 48 h starvation, compared to saline injected animals)?
**A.** accelerated recovery

**Q.** And the EDL muscle recovery ([5]; after 24 h of refeeding)?
**A.** totally recovered

**Q.** What about the “Tibialis anterior muscle recovery” value ([5]; after 24 h of refeeding) of the same sequence?
**A.** totally recovered

**Q.** And the gastrocnemius atrophy ([5]; after 24 h of refeeding, compared to GLP-2 treated fed rats, P<0.05)?
**A.** 9%

**Q.** And the skeletal muscle recovery ([5]; refeeding after 48 h starvation)?
**A.** enhanced
